Measurements taken from patent US20260000694A1, “METHODS AND COMPOSITIONS RELATED TO PREBIOTIC FORMULATIONS USEFUL IN PROMOTING UROGENITAL HEALTH” (KIMBERLY-CLARK WORLDWIDE, INC., priority 2022, published 2026).
Where “and” joins values, the source holds several entries; their conditions need not be identical. Equal values may be shown once.

How the values were obtained:
Type in all cases: cell-based
[1] = test system: Lactobacillus crispatus KC18-1173-1; assay: Competition (co-culture) assay: recovery of L. crispatus after exposure to prebiotics; details: 48 hours, one value per replicate; for L. crispatus Δ on MRS: change vs start, background growth in media without prebiotic subtracted, co-culture; for L. crispatus Recovered on MRS: co-culture with S. anginosus in API 50 CHL media with prebiotic (% w/v in label), anaerobic 37° C.
Method: (§1) The methods used herein were adapted from Vongsa et al. The method used in this particular example is as follows: • 1. A stock was created using a single prebiotic, a prebiotic mixture, or the positive control (glucose) in API 50 CHL media (Biomerieux, Marcy-l'Étoile, France). API 50 CHL media containing minimal amounts of carbon for growth and bromocresol purple as a pH indicator of fermentation. The stock media was filter-sterilized with a 0.22 μM filter and store at 4-6° C. • 2. From a freezer stock, the bacteria were subcultured twice into De Man, Rogosa, and Sharpe (MRS) broth (BD Difco, Becton Dickinson, Franklin Lakes, NJ) and incubated at 37° C. anaerobically overnight until stationary. • 3. The second MRS broth subculture was plated onto an MRS agar plate for Lactobacillus crispatus KC18-1173-1 or blood agar for Streptococcus anginosus KC18-1131-3B and incubated at 37° C. anaerobically overnight until stationary. • 4. A bacterial suspension was created for each bacterium using a sterile tipped swab to transfer colonies into API suspension media (Biomerieux, Marcy-l'Étoile, France) to reach the turbidity of a 2 MacFarland standard. • 5. The starting culture was enumerated. • 6. 9.8 mL of the prebiotic media was added into a sterile 15 mL conical tube. • 7. 100 μL of each prepared bacterial suspension was added to the media, and it was incubated anaerobically at 37° C. for 48 hours. • 8. 100 μL were harvested from each tube containing the bacteria and prebiotic media, it was serially diluted, and plated onto MRS agar and tryptic soy agar (TSA). • 9. The bacteria were enumerated on MRS agar (both L. crispatus and S. anginosus). Small colonies were counted as S. anginosus, and large colonies were counted as L. crispatus. • 10. S. anginosus was enumerated on TSA plates. […] Background growth of bacteria in the negative control (CHL media without prebiotics) was subtracted from the growth recovered in the presence of the prebiotic mixture. • 12. Statistical analysis was performed using Student's t-test. The significance level was set at p<0.05.

[2] = test system: Streptococcus anginosus KC18-1131-3B; assay: Competition (co-culture) assay: recovery of S. anginosus after exposure to prebiotics; details: 48 hours, one value per replicate; for S. anginosus Δ on MRS / S. anginosus Δ on TSA: change vs start, background growth in media without prebiotic subtracted, co-culture; for S. anginosus Recovered on MRS / S. anginosus Recovered on TSA: co-culture with L. crispatus in API 50 CHL media with prebiotic (% w/v in label), anaerobic 37° C.
Method: as §1

[3] = test system: Lactobacillus crispatus KC18-1173-1 to Streptococcus anginosus KC18-1131-3B; assay: Competition (co-culture) assay: ratio of L. crispatus to S. anginosus recovered; details: average CFU/mL L. crispatus on MRS divided by average CFU/mL S. anginosus on TSA, 48 hours
Method: as §1

Which “L. crispatus Δ on MRS” value [1] does the source give for `OC[C@@H](O)[C@@H](O[C@@H]1O[C@H](CO)[C@H](O)[C@H](O)[C@H]1O)[C@H](O)[C@@H](O)CO` [D-Lactitol (2.0), D-Lactitol] here?
Its value is 0.77 Log CFU/mL and 0.66 Log CFU/mL.

What about the “L. crispatus Recovered on MRS” value [1] of the same compound?
Its value is 5.90 Log CFU/mL and 6.74 Log CFU/mL.

And the “S. anginosus Δ on MRS” value [2]?
The value was 0.75 Log CFU/mL and 0.69 Log CFU/mL.

And the “S. anginosus Δ on TSA” value [2]?
The value was 0.58 Log CFU/mL and 0.52 Log CFU/mL.

What about the “S. anginosus Recovered on MRS” value [2] of the same compound?
The value was 7.45 Log CFU/mL and 7.54 Log CFU/mL.

And the “S. anginosus Recovered on TSA” value [2]?
Its value is 7.43 Log CFU/mL and 7.65 Log CFU/mL.

What about the “Ratio (L. crispatus/S. anginosus)” value [3] of the same compound?
The value was 0.

Which “L. crispatus Δ on MRS” value [1] does the source give for `OC[C@@H](O)[C@@H](O[C@H]1O[C@H](CO)[C@@H](O)[C@H](O)[C@H]1O)[C@H](O)[C@@H](O)CO` [Maltitol (2.0), Maltitol] here?
The value was 0.35 Log CFU/mL and −0.08 Log CFU/mL.

What about the “L. crispatus Recovered on MRS” value [1] of the same compound?
Its value is 5.48 Log CFU/mL and 6.00 Log CFU/mL.

What about the “S. anginosus Δ on MRS” value [2] of the same compound?
The value was −0.12 Log CFU/mL and −0.37 Log CFU/mL.

What about the “S. anginosus Δ on TSA” value [2] of the same compound?
Its value is 0.41 Log CFU/mL and 0.47 Log CFU/mL.

And the “S. anginosus Recovered on MRS” value [2]?
The value was 6.58 Log CFU/mL and 6.48 Log CFU/mL.

And the “S. anginosus Recovered on TSA” value [2]?
Its value is 7.26 Log CFU/mL and 7.60 Log CFU/mL.

What about the “Ratio (L. crispatus/S. anginosus)” value [3] of the same compound?
The value was 0.

What does the source list for `OC[C@H]1O[C@@](CO)(OC[C@@]2(O[C@H]3O[C@H](CO)[C@@H](O)[C@H](O)[C@H]3O)O[C@H](CO)[C@@H](O)[C@@H]2O)[C@@H](O)[C@@H]1O` [1-Kestose (2.0), 1-Kestose]?
L. crispatus Δ on MRS [1]: 2.59 Log CFU/mL and 3.60 Log CFU/mL and 2.30 Log CFU/mL and 1.95 Log CFU/mL and 2.74 Log CFU/mL; L. crispatus Recovered on MRS [1]: 7.95 Log CFU/mL and 8.90 Log CFU/mL and 8.00 Log CFU/mL and 7.65 Log CFU/mL and 8.16 Log CFU/mL; S. anginosus Δ on MRS [2]: −6.61 Log CFU/mL and −6.08 Log CFU/mL and −5.03 Log CFU/mL and −3.64 Log CFU/mL and −3.63 Log CFU/mL; S. anginosus Δ on TSA [2]: −3.74 Log CFU/mL and −6.45 Log CFU/mL and −4.15 Log CFU/mL and −4.00 Log CFU/mL (2×); S. anginosus Recovered on MRS [2]: 0.00 Log CFU/mL (2×) and 1.70 Log CFU/mL and 2.70 Log CFU/mL and 2.30 Log CFU/mL; S. anginosus Recovered on TSA [2]: 2.74 Log CFU/mL and 0.00 Log CFU/mL and 2.54 Log CFU/mL and 2.40 Log CFU/mL and 1.70 Log CFU/mL; Ratio (L. crispatus/S. anginosus) [3]: 976,001

For `OC[C@H]1O[C@@H](O[C@@H]2[C@@H](CO)OC(O)(CO)[C@H]2O)[C@H](O)[C@@H](O)[C@H]1O` (mixture of isomers) [Lactulose (2.0), Lactulose], which “L. crispatus Δ on MRS” value [1] is on record?
Its value is 2.38 Log CFU/mL and 2.80 Log CFU/mL and 2.58 Log CFU/mL and 2.60 Log CFU/mL and 2.69 Log CFU/mL.

And the “L. crispatus Recovered on MRS” value [1]?
Its value is 7.74 Log CFU/mL and 8.10 Log CFU/mL and 8.28 Log CFU/mL and 8.30 Log CFU/mL and 8.11 Log CFU/mL.

What about the “S. anginosus Δ on MRS” value [2] of the same compound?
Its value is −6.73 Log CFU/mL and −2.23 Log CFU/mL and −2.53 Log CFU/mL and −6.61 Log CFU/mL and −6.08 Log CFU/mL.

And the “S. anginosus Δ on TSA” value [2]?
Its value is −3.85 Log CFU/mL and −2.17 Log CFU/mL and −3.70 Log CFU/mL and −3.74 Log CFU/mL and −3.67 Log CFU/mL.

What about the “S. anginosus Recovered on MRS” value [2] of the same compound?
Its value is 0.00 Log CFU/mL (3×) and 4.11 Log CFU/mL and 3.40 Log CFU/mL.

And the “S. anginosus Recovered on TSA” value [2]?
Its value is 2.85 Log CFU/mL and 4.23 Log CFU/mL and 2.00 Log CFU/mL and 2.74 Log CFU/mL and 2.78 Log CFU/mL.

What about the “Ratio (L. crispatus/S. anginosus)” value [3] of the same compound?
Its value is 37,556.

With `O=C(CO)[C@@H](O)[C@H](O)[C@H](O)CO[C@H]1O[C@H](CO)[C@@H](O)[C@H](O)[C@H]1O` [Palatinose ™ (2.0), 6-O-α-D-glucopyranosyl-D-fructose] as the compound, how does the “L. crispatus Δ on MRS” value [1] read?
The value was 2.10 Log CFU/mL and 2.30 Log CFU/mL and 2.77 Log CFU/mL and 3.24 Log CFU/mL and 1.90 Log CFU/mL.

And the “L. crispatus Recovered on MRS” value [1]?
The value was 7.93 Log CFU/mL and 8.00 Log CFU/mL and 8.19 Log CFU/mL and 8.37 Log CFU/mL and 7.98 Log CFU/mL.

What about the “S. anginosus Δ on MRS” value [2] of the same compound?
The value was −1.83 Log CFU/mL and −2.08 Log CFU/mL and −2.03 Log CFU/mL and −1.82 Log CFU/mL and −1.69 Log CFU/mL.

What about the “S. anginosus Δ on TSA” value [2] of the same compound?
The value was −1.48 Log CFU/mL and −2.41 Log CFU/mL and −2.00 Log CFU/mL and −2.42 Log CFU/mL and 2.39 Log CFU/mL.

And the “S. anginosus Recovered on MRS” value [2]?
The value was 4.78 Log CFU/mL and 4.00 Log CFU/mL and 4.70 Log CFU/mL and 4.88 Log CFU/mL and 5.16 Log CFU/mL.

What about the “S. anginosus Recovered on TSA” value [2] of the same compound?
The value was 5.00 Log CFU/mL and 4.04 Log CFU/mL and 4.70 Log CFU/mL and 4.53 Log CFU/mL and 4.74 Log CFU/mL.

And the “Ratio (L. crispatus/S. anginosus)” value [3]?
Its value is 2,681.

`CO[C@H]1O[C@H](CO)[C@@H](O)[C@H](O)[C@H]1O` [α-Methyl-D-Glucoside (2.0), α-Methyl-D-Glucoside] was tested. Which “L. crispatus Δ on MRS” value [1] did it give?
Its value is 1.90 Log CFU/mL and 1.39 Log CFU/mL and 0.70 Log CFU/mL.

What about the “L. crispatus Recovered on MRS” value [1] of the same compound?
Its value is 7.20 Log CFU/mL and 6.52 Log CFU/mL and 6.78 Log CFU/mL.

And the “S. anginosus Δ on MRS” value [2]?
The value was −0.33 Log CFU/mL and 0.45 Log CFU/mL and 0.55 Log CFU/mL.

What about the “S. anginosus Δ on TSA” value [2] of the same compound?
Its value is 0.34 Log CFU/mL and 0.62 Log CFU/mL and 0.41 Log CFU/mL.

And the “S. anginosus Recovered on MRS” value [2]?
The value was 5.60 Log CFU/mL and 7.15 Log CFU/mL and 7.40 Log CFU/mL.

And the “S. anginosus Recovered on TSA” value [2]?
Its value is 6.04 Log CFU/mL and 7.47 Log CFU/mL and 7.54 Log CFU/mL.

What about the “Ratio (L. crispatus/S. anginosus)” value [3] of the same compound?
The value was 0.
